These results are taken from ChEMBL document CHEMBL4393685, “Synthesis and evaluation of pyrimidoindole analogs in umbilical cord blood ex vivo expansion” (Eur J Med Chem, 2019).

Holding throughout (assay type): functional
Experiment [1] in a line: Stimulation of ex vivo expansion of human CD34+ cells assessed as CD34+CD38- level at 0.01 to 1 uM incubated for 7 days supplemented with 50% fresh medium containing cytokines every other day by flow cytometry (reference value: 19.10 +/- 0.35%). (Flow cytometry measures light scatter and fluorescence of single cells or particles in a stream.)
The nature of experiment [2]: Stimulation of ex vivo expansion of human CD34+ cells assessed as CD34+CD38- level incubated for 7 days supplemented with 50% fresh medium containing cytokines every other day by flow cytometry.
A short description of experiment [3]: Stimulation of ex vivo expansion of human CD34+ cells assessed as CD34+/CD38- level at 0.01 to 1 uM incubated for 7 days supplemented with 50% fresh medium containing cytokines every other day by flow cytometry relative to control.
The mark [4] stands for this setting: Homo sapiens, 168 h, read-out: EC50.

SMILES strings stand for the structures.

On to `Cn1nnc(-c2ccc3c(c2)[nH]c2nc(Cc4ccccc4)nc(Nc4ccc(F)c(Cl)c4)c23)n1`, for which the Activity in experiment [1] was 15.79%. Also, in experiment [2], the EC50 entry was “Nd(Toxic)”. In addition, in experiment [3], the “fold change (FC)” value stood at 0.83.
Take `Cn1nnc(-c2ccc3c(c2)[nH]c2nc(Cc4ccccc4)nc(N[C@H]4CC[C@H](O)CC4)c23)n1`: the Activity in experiment [1] came to 50.15%. Besides, the EC50 in experiment [2] (setting [4]) is 473 nM. The “fold change (FC)” value in experiment [3] amounted to 2.63.
`COc1ccc(CCNc2nc(Cc3ccccc3)nc3[nH]c4ccc(-c5nnn(C)n5)cc4c23)cc1`: the Activity in experiment [1] came out at 21.96%. For the same molecule, in experiment [2], the half-maximal effective concentration (EC50) entry is given as “Nd(Toxic)”. In addition, in experiment [3], the “fold change (FC)” value was determined as 1.15.
For `Cc1cc(Cl)ccc1Nc1nc(Cc2ccccc2)nc2[nH]c3cc(-c4nnn(C)n4)ccc3c12`, in experiment [1], the Activity was found to be 15.37%. Also, the EC50 entry in experiment [2] was “Nd(Toxic)”. Moreover, the “fold change (FC)” value in experiment [3] worked out at 0.8.
The corresponding values for `CN(C)c1nc(Cc2ccccc2)nc2[nH]c3cc(-c4nnn(C)n4)ccc3c12` are 15.91%, “Nd(Toxic)” and 0.83.
`Cn1nnc(-c2ccc3[nH]c4nc(Cc5ccccc5)nc(N5CCNCC5)c4c3c2)n1`: in experiment [1], the Activity was found to be 24.69%. In addition, the concentration for a half-maximal effect (EC50) in experiment [2] (setting [4]) was determined as 157 nM. For the same molecule, the “fold change (FC)” value in experiment [3] worked out at 1.29.
On to `Cn1nnc(-c2ccc3c(c2)[nH]c2nc(Cc4ccccc4)nc(NCCc4ccc(O)cc4)c23)n1`, for which the Activity in experiment [1] stood at 18.2%. The EC50 result in experiment [2] was “Nd(Toxic)”. In addition, in experiment [3], the “fold change (FC)” value is listed as 0.95.
Take `COc1ccc(Nc2nc(Cc3ccccc3)nc3[nH]c4ccc(-c5nnn(C)n5)cc4c23)cc1`: the Activity in experiment [1] is 19.34%. Further, in experiment [2], the EC50 entry is “Nd(Toxic)”. For the same molecule, the “fold change (FC)” value in experiment [3] came out at 1.01.
For the molecule `COc1ccc(CCNc2nc(Cc3ccccc3)nc3[nH]c4cc(-c5nnn(C)n5)ccc4c23)cc1`, the Activity in experiment [1] amounted to 14.15%. In experiment [2], the EC50 result is on record as “Nd(Toxic)”. Also, in experiment [3], the “fold change (FC)” value was 0.74.
On to `Cn1nnc(-c2ccc3c(c2)[nH]c2nc(Cc4ccccc4)nc(NC4CCOCC4)c23)n1`, for which the Activity in experiment [1] is recorded as 30.87%. The EC50 in experiment [2] (setting [4]) stood at 972 nM. Moreover, the “fold change (FC)” value in experiment [3] stood at 1.62.
As for `Cn1nnc(-c2ccc3[nH]c4nc(Cc5ccccc5)nc(N5CCOCC5)c4c3c2)n1`, the Activity in experiment [1] is 17.32%. Besides, the EC50 in experiment [2] (setting [4]) amounted to 177 nM. Besides, in experiment [3], the “fold change (FC)” value was 0.91.
On to `Cn1nnc(-c2ccc3[nH]c4nc(Cc5ccccc5)nc(Nc5ccc(N)cc5)c4c3c2)n1`, for which the Activity in experiment [1] stood at 22.01%. Moreover, the EC50 entry in experiment [2] was “Nd(Toxic)”. Moreover, in experiment [3], the “fold change (FC)” value is listed as 1.15.
`Cn1nnc(-c2ccc3[nH]c4nc(Cc5ccccc5)nc(N5CCCC(CO)C5)c4c3c2)n1` (centres undefined): the Activity in experiment [1] was found to be 22.2%. Besides, the concentration for a half-maximal effect (EC50) in experiment [2] (setting [4]) came to 59.2 nM. In experiment [3], the “fold change (FC)” value was determined as 1.16.
As to `Cn1nnc(-c2ccc3[nH]c4nc(Cc5ccccc5)nc(N[C@H]5CC[C@H](N)CC5)c4c3c2)n1`, the Activity in experiment [1] worked out at 18.72%. The concentration giving a half-maximal response (EC50) entry in experiment [2] was “Nd(Toxic)”. Besides, the “fold change (FC)” value in experiment [3] is reported as 0.98.
For the molecule `COc1ccc(CCNc2nc(Cc3ccccc3)nc3[nH]c4cc(-c5nnn(C)n5)ccc4c23)cc1OC`, the Activity in experiment [1] was 37.07%. The EC50 result in experiment [2] is on record as “Nd(Toxic)”. Moreover, the “fold change (FC)” value in experiment [3] is 1.94.
The corresponding values for `Cn1nnc(-c2ccc3[nH]c4nc(Cc5ccccc5)nc(NCCc5ccc(O)cc5)c4c3c2)n1` are 20.65%, “Nd(Toxic)” and 1.08.
`Cn1nnc(-c2ccc3c(c2)[nH]c2nc(Cc4ccccc4)nc(NCCc4c[nH]c5ccccc45)c23)n1`: the Activity in experiment [1] is 19.73%. The EC50 result in experiment [2] is “Nd(Toxic)”. Also, the “fold change (FC)” value in experiment [3] is reported as 1.03.
Turning to `C#Cc1cccc(Nc2nc(Cc3ccccc3)nc3[nH]c4ccc(-c5nnn(C)n5)cc4c23)c1`, the Activity in experiment [1] was found to be 25.99%. The concentration for a half-maximal effect (EC50) in experiment [2] (setting [4]) is 56.2 nM. The “fold change (FC)” value in experiment [3] worked out at 1.36.

As usually defined, the EC50 is the concentration giving half of the maximal effect.
